Measurements taken from publication PMC8307384, “Characterization of Two α-L-Arabinofuranosidases from Acetivibrio mesophilus and Their Synergistic Effect in Degradation of Arabinose-Containing Substrates” (Microorganisms, 2021).

Biological target: T1, AmAraf51 (Acetivibrio mesophilus, UniProt A0A4Q0I2R2)
T1 construct: gene EFD62_11990; complete ORF, 509 residues, no signal peptide; N-terminal His6 tag (not reported cut); E. coli ArcticExpress (DE3), pET24c
Test: TLC of hydrolysis products
Type: biochemical
Settings: 85 nM enzyme, 0.5 g/L substrate, pH 6.0, 60 °C

T1 sequence (A0A4Q0I2R2 entry or part of it): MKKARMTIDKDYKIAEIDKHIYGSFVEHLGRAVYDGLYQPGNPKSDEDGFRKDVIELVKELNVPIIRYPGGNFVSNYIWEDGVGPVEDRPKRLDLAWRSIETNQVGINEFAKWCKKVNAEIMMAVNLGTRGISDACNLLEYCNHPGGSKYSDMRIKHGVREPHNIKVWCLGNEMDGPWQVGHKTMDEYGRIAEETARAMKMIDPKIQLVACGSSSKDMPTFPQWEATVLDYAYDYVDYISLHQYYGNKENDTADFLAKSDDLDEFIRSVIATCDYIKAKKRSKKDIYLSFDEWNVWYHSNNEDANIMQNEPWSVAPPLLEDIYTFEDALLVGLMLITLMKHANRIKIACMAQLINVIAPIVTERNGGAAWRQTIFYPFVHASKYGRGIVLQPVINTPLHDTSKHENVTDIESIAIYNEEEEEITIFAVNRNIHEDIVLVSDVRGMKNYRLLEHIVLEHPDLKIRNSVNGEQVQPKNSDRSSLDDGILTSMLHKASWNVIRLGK

For `OC[C@@H]1O[C@@H](OC[C@@H]2O[C@@H](OC[C@@H]3OC(O)[C@H](O)[C@H]3O)[C@H](O)[C@H]2O)[C@H](O)[C@H]1O` (stereo partly shown) [A3, arabinotriose], which “TLC of hydrolysis products” value is on record?
Its value is “incubation of AmAraf51 with three different AOS led to their almost complete hydrolysis to arabinose”.
